The text below walks through data of ChEMBL document CHEMBL1144921, “14-amino, 14-alkylamino, and 14-acylamino analogs of oxymorphindole. Differential effects on opioid receptor binding and functional profiles” (J Med Chem, 2003).

Broadly, the EC50 is the concentration that produces a half-maximal response. As a reminder, the Ki is a dissociation constant, usually derived from enzyme kinetics or from competition with a known ligand.

Test [1] addresses T1, Kappa-type opioid receptor (Homo sapiens, UniProt P41145). In words: Stimulation of […] binding at human recombinant Opioid receptor kappa 1 transfected into CHO cells. Type of test: cell-based.
Test [2] has as its target T2, Mu-type opioid receptor (Homo sapiens, UniProt P35372). In words: Percent stimulation of [35S]GTP-gamma-S, binding in recombinant human Opioid receptor mu 1 transfected into CHO cells. Type of test: functional, cell-based. (In general: GTPγS resists hydrolysis and so accumulates on activated G proteins.)
The target in test [3] is T3, Delta-type opioid receptor (Homo sapiens, UniProt P41143). Briefly: Stimulation of [35S]GTP-gamma-S, binding at human recombinant Opioid receptor delta 1 transfected into CHO cells. It is filed as functional, cell-based.
Test [4] has as its target T3, Delta-type opioid receptor. In words: Displacement of [3H]C1-DPDPE from human recombinant Opioid receptor delta 1 on CHO cell membranes. It is filed as cell-based.
Test [5] addresses Opioid receptors; delta & kappa (Homo sapiens) (UniProt P41145+P41143). In words: Selectivity between kappa opioid receptor and delta opioid receptor. Type of test: functional.
The target of test [6] is T3, Delta-type opioid receptor. Briefly: Percent stimulation of [35S]GTP-gamma-S, binding to recombinant human Opioid receptor delta 1 expressed in CHO cells. Type of test: functional, cell-based.
The target in test [7] is T2, Mu-type opioid receptor. In words: Stimulation of [35S]GTP-gamma-S, binding to recombinant human Opioid receptor mu 1 expressed in CHO cells. Type of test: functional, cell-based.
In test [8] the target is Opioid receptors; mu & delta (Homo sapiens) (UniProt P41143+P35372). Briefly: Selectivity between mu opioid receptor and delta opioid receptor. Type of test: functional.
The target in test [9] is T1, Kappa-type opioid receptor. In words: Percent stimulation of [35S]GTP-gamma-S, binding in recombinant human Opioid receptor kappa 1 transfected into CHO cells: Antagonist activity. Type of test: functional, cell-based. The settings on record: filed as antagonist.
The target in test [10] is T1, Kappa-type opioid receptor. Briefly: Displacement of [3H]U-69593 from human recombinant Opioid receptor kappa 1 on CHO cell membranes. It is filed as cell-based. A general note: In a radioligand displacement assay an active substance lowers the binding of a labelled ligand.
For test [11], the target named is T2, Mu-type opioid receptor. In words: Displacement of [3H]DAMGO from human recombinant Opioid receptor mu 1 on CHO cell membranes. Type of test: cell-based.
In test [12] the target is T1, Kappa-type opioid receptor. Briefly: Percent stimulation of [35S]GTP-gamma-S, binding in recombinant human Opioid receptor kappa 1 transfected into CHO cells. Type of test: functional, cell-based.
Test [13] has as its target T2, Mu-type opioid receptor. Briefly: Percent stimulation of [35S]GTP-gamma-S, binding in recombinant human mu opioid receptor transfected into CHO cells. It is filed as functional, cell-based.
For test [14], the target named is T1, Kappa-type opioid receptor. In words: Percent stimulation of […] binding in recombinant human Opioid receptor kappa 1 transfected into CHO cells: Antagonist activity. It is filed as cell-based. Particulars: filed as antagonist.

T2 sequence (P35372 whole entry): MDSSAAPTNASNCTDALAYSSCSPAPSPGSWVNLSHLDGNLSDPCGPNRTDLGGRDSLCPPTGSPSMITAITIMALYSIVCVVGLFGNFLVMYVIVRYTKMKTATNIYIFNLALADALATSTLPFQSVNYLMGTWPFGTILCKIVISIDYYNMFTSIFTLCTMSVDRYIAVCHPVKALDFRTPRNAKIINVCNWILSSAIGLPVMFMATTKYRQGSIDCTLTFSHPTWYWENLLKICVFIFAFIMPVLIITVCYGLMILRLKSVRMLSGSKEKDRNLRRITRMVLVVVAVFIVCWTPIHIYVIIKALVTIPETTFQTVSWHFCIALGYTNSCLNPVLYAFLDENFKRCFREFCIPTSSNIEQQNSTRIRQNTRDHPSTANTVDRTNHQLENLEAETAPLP
Sequence of Opioid receptors; mu & delta (Homo sapiens) (P35372 whole entry, looked up): as the sequence (P35372 whole entry) above
Sequence of Opioid receptors; mu & delta (Homo sapiens) (P41143 whole entry, looked up): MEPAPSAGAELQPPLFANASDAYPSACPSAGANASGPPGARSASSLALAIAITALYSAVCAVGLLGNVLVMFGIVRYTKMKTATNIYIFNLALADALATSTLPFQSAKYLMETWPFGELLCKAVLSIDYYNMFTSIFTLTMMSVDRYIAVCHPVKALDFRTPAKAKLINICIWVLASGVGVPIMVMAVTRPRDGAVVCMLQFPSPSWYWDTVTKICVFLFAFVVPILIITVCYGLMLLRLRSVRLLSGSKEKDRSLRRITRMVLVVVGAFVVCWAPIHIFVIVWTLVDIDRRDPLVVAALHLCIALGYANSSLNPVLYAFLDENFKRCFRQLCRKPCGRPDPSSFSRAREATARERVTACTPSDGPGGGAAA
T3 sequence (P41143 whole entry): as the sequence (P41143 whole entry, looked up) above
Sequence of Opioid receptors; delta & kappa (Homo sapiens) (P41143 whole entry, looked up): as above
Sequence of Opioid receptors; delta & kappa (Homo sapiens) (P41145 whole entry, looked up): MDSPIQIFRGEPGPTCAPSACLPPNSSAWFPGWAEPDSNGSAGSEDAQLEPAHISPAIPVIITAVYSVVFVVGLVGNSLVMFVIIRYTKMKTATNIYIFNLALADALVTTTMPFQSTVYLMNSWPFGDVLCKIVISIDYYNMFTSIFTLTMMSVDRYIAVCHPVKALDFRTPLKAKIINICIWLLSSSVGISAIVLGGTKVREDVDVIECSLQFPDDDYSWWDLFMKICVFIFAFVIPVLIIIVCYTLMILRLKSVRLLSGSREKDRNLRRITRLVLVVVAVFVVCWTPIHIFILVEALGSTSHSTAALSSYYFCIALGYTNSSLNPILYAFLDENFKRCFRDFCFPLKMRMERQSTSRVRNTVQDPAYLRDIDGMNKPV
T1 sequence (P41145 whole entry): as the sequence (P41145 whole entry, looked up) above

In the case of `CCCCC(=O)N[C@@]12Cc3c([nH]c4ccccc34)[C@@H]3Oc4c(O)ccc5c4[C@@]31CCN(C)C2C5`, the EC50 in [1] turned out to be 56.9 nM; in test [3] it was 3.3 nM; in [7], 149 nM. The Activity in [2] is 31%; in test [9] it was “Antagonist”. The Ki came to 2.07 nM in test [4], 723 nM in test [10] and 51.1 nM in test [11]. Moreover, the Selectivity in [5] came to 349; in test [8], 25. Moreover, the Stimulation in test [6] turned out to be 74%.
Consider `CN1CC[C@]23c4c5ccc(O)c4O[C@H]2c2[nH]c4ccccc4c2C[C@@]3(CCCc2ccccc2)C1C5`, for which the EC50 in test [1] was 96.5 nM; in test [3], 7.53 nM; in test [7] it was 21.5 nM. Moreover, the Stimulation is 91% in [2], 65% in test [6] and 67% in test [12]. Also, the figures for the Ki in test [4], in [10] and in test [11] were 23.6 nM, 63.3 nM and 4.91 nM, respectively. For the same compound, the Selectivity in test [5] was 2.7; in test [8], 0.2.
Regarding `CN1CC[C@]23c4c5ccc(O)c4O[C@H]2c2[nH]c4ccccc4c2C[C@@]3(NC(=O)Cc2ccccc2)C1C5`, the EC50 in test [1] is 96.2 nM; in [3], 1.2 nM; in test [7] it was 95 nM. Also, the values for the Stimulation in [2], in [6] and in test [12] were 53%, 89% and 36%, respectively. Moreover, the inhibition constant (Ki) was found to be 6.55 nM in [4], 148 nM in [10] and 29.3 nM in test [11]. Further, the Selectivity in [5] worked out at 23; in test [8], 4.5.
Take `CCCCCCC(=O)N[C@@]12Cc3c([nH]c4ccccc34)[C@@H]3Oc4c(O)ccc5c4[C@@]31CCN(C)C2C5`: the values for the EC50 in test [3] and in test [7] were 19 nM and 51.4 nM, respectively. In addition, the Ki was found to be 10.3 nM in test [4], 409 nM in test [10] and 33.4 nM in [11]. Also, the Stimulation in test [13] was 44%; in [6], 55%. Further, the Selectivity is 40 in test [5] and 3.2 in test [8]. In addition, in test [9], the Activity entry is “Antagonist”.
Consider `CN1CC[C@]23c4c5ccc(O)c4O[C@H]2c2[nH]c4ccccc4c2C[C@@]3(O)[C@H]1C5` [OXYMORPHINDOLE], for which the Ki came to 1.28 nM in test [4], 396 nM in test [10] and 363 nM in test [11]. In addition, the Selectivity worked out at 309 in test [5] and 284 in test [8].
For the compound `C[C@@H](NC(=O)[C@@H](N)Cc1ccc(O)cc1)C(=O)NCC(=O)N(C)[C@@H](Cc1ccccc1)C(=O)NCCO`, the figures for the Stimulation in [2] and in [12] were 100% and 62%, respectively.
On to `CN1CC[C@]23c4c5ccc(O)c4O[C@H]2c2[nH]c4ccccc4c2C[C@@]3(NCCCc2ccccc2)C1C5`, for which the EC50 amounted to 27.2 nM in test [1], 0.87 nM in [3] and 45.1 nM in test [7]. Besides, the Ki was found to be 1.95 nM in test [4], 7.79 nM in [10] and 10.2 nM in [11]. The figures for the Stimulation in [13], in test [6] and in [12] were 50%, 37% and 65%, respectively. The Selectivity turned out to be 4 in [5] and 5 in test [8].
Regarding `CN1CC[C@]23c4c5ccc(O)c4O[C@H]2c2[nH]c4ccccc4c2C[C@@]3(NC(=O)CCc2ccccc2)C1C5`, the Stimulation in [2] turned out to be 27%; in test [6], 72%. Besides, the EC50 in test [3] turned out to be 1.4 nM; in [7], 5.2 nM. In addition, the inhibition constant (Ki) in [4] is 4.23 nM; in test [10], 24.5 nM; in [11], 9.61 nM. Also, the Selectivity is 5.8 in test [5] and 2.3 in test [8]. In addition, the Activity entry in [9] is “Antagonist”.
For `CN1CC[C@]23c4c5ccc(O)c4O[C@H]2c2[nH]c4ccccc4c2C[C@@]3(NCCc2ccccc2)C1C5`, the EC50 in test [1] was 16.4 nM; in test [3], 0.95 nM; in [7], 5.33 nM. Besides, the results for the Stimulation in test [2], in [6] and in [12] were 93%, 33% and 74%, respectively. In addition, the Ki in test [4] is 1.1 nM; in test [10] it was 13.8 nM; in [11], 1.68 nM. In addition, the Selectivity in test [5] came to 13; in test [8], 1.5.
Take `Oc1ccc2c3c1O[C@H]1c4[nH]c5c(c4C[C@@]4(O)[C@@H](C2)N(CC2CC2)CC[C@]314)C[C@@]1(O)[C@H]2Cc3ccc(O)c4c3[C@@]1(CCN2CC1CC1)[C@H]5O4`: in [9], the Activity entry was “Antagonist”.
As for `CN1CC[C@]23c4c5ccc(O)c4O[C@H]2c2[nH]c4ccccc4c2C[C@@]3(N)C1C5`, the EC50 is 8.6 nM in test [3] and greater than 1000 nM in test [7]. Besides, the Ki in [4] came out at 2.88 nM; in test [10] it was 399 nM; in test [11], 1050 nM. In test [14], the Activity entry was “Antagonist”. Besides, the Stimulation in [6] was 38%. In [8], this compound came in with a Selectivity of 365.
In the case of `CCCCN[C@@]12Cc3c([nH]c4ccccc34)[C@@H]3Oc4c(O)ccc5c4[C@@]31CCN(C)C2C5`, the concentration for a half-maximal effect (EC50) in test [1] worked out at 936 nM; in test [3] it was 4.71 nM; in [7] it was 272 nM. Also, the results for the Stimulation in test [2], in [6] and in test [12] were 40%, 36% and 33%, respectively. The Ki was found to be 1.39 nM in test [4], 36.1 nM in [10] and 37.2 nM in test [11]. For the same compound, the values for the Selectivity in test [5] and in test [8] were 26 and 27, respectively.
For `CCN[C@@]12Cc3c([nH]c4ccccc34)[C@@H]3Oc4c(O)ccc5c4[C@@]31CCN(C)C2C5`, the Stimulation in test [2] was determined as 50%; in [6] it was 43%. The EC50 in test [3] was 0.33 nM; in [7] it was 184 nM. The Ki is 0.73 nM in test [4], 63.8 nM in [10] and 76.3 nM in [11]. Further, in test [14], the Activity result is “Antagonist”. Moreover, the Selectivity amounted to 87 in [5] and 105 in test [8].
`Oc1ccc2c3c1O[C@H]1c4[nH]c5ccccc5c4C[C@@]4(O)[C@@H](C2)N(CC2CC2)CC[C@]314`: the Activity entry in [9] is “Antagonist”.
